# From paper PMC6738096 (British Journal of Cancer, 2019)
# Assay: Phase 1 dose-escalation trial: safety and tolerability (TEAEs, SAEs, DLT, MTD, RP2D)
# Procedure: Endpoints included the incidence of DLTs (defined in the ‘Safety' section) in the first 28-day treatment cycle (cycle 1), the frequency and severity of adverse events (AEs) and serious AEs (SAEs) and changes in laboratory values, vital signs, physical examination findings and Eastern Cooperative Oncology Group (ECOG) performance status (PS).
# The starting dose was 30 mg, which was determined by review of nonclinical toxicokinetic assessments. A treatment cycle comprised 28 days in the absence of disease progression or unacceptable toxicity. Patients received starting doses ranging from 30 mg once every 24 hours (Q24h) to 480 mg Q24h, and escalation proceeded based on a 3 + 3 design.
# The subsequent cohort started at a reduced dosing regimen. Additional dosing schedules were once every 12 hours (Q12h) at 30 and 60 mg and once every 8 hours (Q8h) at 20 and 40 mg.
# Toxicities were graded and recorded according to NCI CTCAE version 4.03. Patients were assessed for DLTs during the first 28-day cycle. A DLT was defined as any grade ≥ 3 nonhaematologic toxicity, according to NCI CTCAE version 4.03.
smiles,measurement,setting,value
CC(C)NC(=O)[C@H]1CC[C@@H](n2c(NC(=O)c3ccc(F)cc3)nc3ccc(CN4CCC(C(C)(C)O)CC4)cc32)CC1 [TSR-011],Drug-related TEAE: Abnormal dreams,20 mg Q8h (n = 16),1 (6.3) n (%)
same,Drug-related TEAE: Anaemia,20 mg Q8h (n = 16),0 n (%)
same,Drug-related TEAE: Asthenia,20 mg Q8h (n = 16),1 (6.3) n (%)
same,Drug-related TEAE: Constipation,20 mg Q8h (n = 16),2 (12.5) n (%)
same,Drug-related TEAE: Decreased appetite,20 mg Q8h (n = 16),1 (6.3) n (%)
same,Drug-related TEAE: Diarrhoea,20 mg Q8h (n = 16),1 (6.3) n (%)
same,Drug-related TEAE: Dysaesthesia,20 mg Q8h (n = 16),1 (6.3) n (%)
same,Drug-related TEAE: Dysgeusia,20 mg Q8h (n = 16),0 n (%)
same,Drug-related TEAE: Electrocardiogram QTc prolonged,20 mg Q8h (n = 16),1 (6.3) n (%)
same,Drug-related TEAE: Fatigue,20 mg Q8h (n = 16),1 (6.3) n (%)
same,Drug-related TEAE: Headache,20 mg Q8h (n = 16),0 n (%)
same,Drug-related TEAE: Hot flush,20 mg Q8h (n = 16),1 (6.3) n (%)
same,Drug-related TEAE: Increased transaminases,20 mg Q8h (n = 16),0 n (%)
same,Drug-related TEAE: Insomnia,20 mg Q8h (n = 16),0 n (%)
same,Drug-related TEAE: Myalgia,20 mg Q8h (n = 16),0 n (%)
same,Drug-related TEAE: Nausea,20 mg Q8h (n = 16),0 n (%)
same,Drug-related TEAE: Peripheral oedema,20 mg Q8h (n = 16),0 n (%)
same,Drug-related TEAE: Rash,20 mg Q8h (n = 16),0 n (%)
same,Drug-related TEAE: Vomiting,20 mg Q8h (n = 16),2 (12.5) n (%)
same,Grade 3 TEAE: Anaemia,20 mg Q8h (n = 16),2 (12.5) n (%)
same,Grade 3 TEAE: Ascites,20 mg Q8h (n = 16),1 (6.3) n (%)
same,Grade 3 TEAE: Asthenia,20 mg Q8h (n = 16),1 (6.3) n (%)
same,Grade 3 TEAE: Dyspnoea,20 mg Q8h (n = 16),0 n (%)
same,Grade 3 TEAE: Electrocardiogram QTc prolonged,20 mg Q8h (n = 16),0 n (%)
same,Grade 3 TEAE: Fatigue,20 mg Q8h (n = 16),1 (6.3) n (%)
same,Grade 3 TEAE: Metastases to the central nervous system,20 mg Q8h (n = 16),1 (6.3) n (%)
same,Patients with any TEAE,20 mg Q8h (n = 16),16 (100.0) Number (%)
same,Patients with any TEAE leading to treatment discontinuation,20 mg Q8h (n = 16),2 (12.5) Number (%)
same,Patients with any serious TEAE,20 mg Q8h (n = 16),7 (43.8) Number (%)
same,Patients with any study drug-related TEAE,20 mg Q8h (n = 16),9 (56.3) Number (%)
same,Patients with ≥ 1 treatment-emergent SAE,20 mg Q8h (n = 16),7 (43.8) n (%)
same,SAE class: Blood and lymphatic system disorders,20 mg Q8h (n = 16),0 n (%)
same,SAE class: Cardiac disorders,20 mg Q8h (n = 16),0 n (%)
same,SAE class: Gastrointestinal disorders,20 mg Q8h (n = 16),1 (6.3) n (%)
same,SAE class: General disorders and administration-site conditions,20 mg Q8h (n = 16),2 (12.5) n (%)
same,SAE class: Hepatobiliary disorders,20 mg Q8h (n = 16),1 (6.3) n (%)
same,SAE class: Infections and infestations,20 mg Q8h (n = 16),1 (6.3) n (%)
same,SAE class: Metabolism and nutrition disorders,20 mg Q8h (n = 16),1 (6.3) n (%)
same,SAE class: Musculoskeletal and connective tissue disorders,20 mg Q8h (n = 16),1 (6.3) n (%)
same,"SAE class: Neoplasms benign, malignant and unspecified (including cysts and polyps)",20 mg Q8h (n = 16),2 (12.5) n (%)
same,SAE class: Nervous system disorders,20 mg Q8h (n = 16),1 (6.3) n (%)
same,"SAE class: Respiratory, thoracic and mediastinal disorders",20 mg Q8h (n = 16),0 n (%)
same,SAE class: Vascular disorders,20 mg Q8h (n = 16),1 (6.3) n (%)
same,SAE: Abdominal pain,20 mg Q8h (n = 16),0 n (%)
same,SAE: Anaemia,20 mg Q8h (n = 16),0 n (%)
same,SAE: Asthenia,20 mg Q8h (n = 16),1 (6.3) n (%)
same,SAE: Basal cell carcinoma,20 mg Q8h (n = 16),1 (6.3) n (%)
same,SAE: Bone pain,20 mg Q8h (n = 16),1 (6.3) n (%)
same,SAE: Deep-vein thrombosis,20 mg Q8h (n = 16),1 (6.3) n (%)
same,SAE: Dehydration,20 mg Q8h (n = 16),1 (6.3) n (%)
same,SAE: Disease progression,20 mg Q8h (n = 16),2 (12.5) n (%)
same,SAE: Dyspnoea,20 mg Q8h (n = 16),0 n (%)
same,SAE: Gastric haemorrhage,20 mg Q8h (n = 16),1 (6.3) n (%)
same,SAE: Gastric ulcer helicobacter,20 mg Q8h (n = 16),0 n (%)
same,SAE: Infection,20 mg Q8h (n = 16),0 n (%)
same,SAE: Lower respiratory tract infection,20 mg Q8h (n = 16),0 n (%)
same,SAE: Mastoiditis,20 mg Q8h (n = 16),1 (6.3) n (%)
same,SAE: Mental impairment,20 mg Q8h (n = 16),1 (6.3) n (%)
same,SAE: Metastases to the central nervous system,20 mg Q8h (n = 16),1 (6.3) n (%)
same,SAE: Pericardial effusion,20 mg Q8h (n = 16),0 n (%)
same,SAE: Pleural effusion,20 mg Q8h (n = 16),0 n (%)
same,SAE: Pneumonia,20 mg Q8h (n = 16),0 n (%)
same,SAE: Portal vein thrombosis,20 mg Q8h (n = 16),1 (6.3) n (%)
same,SAE: Seizure,20 mg Q8h (n = 16),1 (6.3) n (%)
same,SAE: Subarachnoid haemorrhage,20 mg Q8h (n = 16),0 n (%)
same,Total number of TEAEs,20 mg Q8h (n = 16),159
same,Total number of treatment-emergent SAEs,20 mg Q8h (n = 16),14
same,Patients with any AE leading to death,"20 mg Q8h (n = 16), none deemed related to treatment",2 (12.5) Number (%)
same,Drug-related TEAE: Abnormal dreams,40 mg Q8h (n = 31),0 n (%)
same,Drug-related TEAE: Anaemia,40 mg Q8h (n = 31),1 (3.2) n (%)
same,Drug-related TEAE: Asthenia,40 mg Q8h (n = 31),0 n (%)
same,Drug-related TEAE: Constipation,40 mg Q8h (n = 31),2 (6.5) n (%)
same,Drug-related TEAE: Decreased appetite,40 mg Q8h (n = 31),0 n (%)
same,Drug-related TEAE: Diarrhoea,40 mg Q8h (n = 31),0 n (%)
same,Drug-related TEAE: Dysaesthesia,40 mg Q8h (n = 31),0 n (%)
same,Drug-related TEAE: Dysgeusia,40 mg Q8h (n = 31),0 n (%)
same,Drug-related TEAE: Electrocardiogram QTc prolonged,40 mg Q8h (n = 31),3 (9.7) n (%)
same,Drug-related TEAE: Fatigue,40 mg Q8h (n = 31),0 n (%)
same,Drug-related TEAE: Headache,40 mg Q8h (n = 31),0 n (%)
same,Drug-related TEAE: Hot flush,40 mg Q8h (n = 31),0 n (%)
same,Drug-related TEAE: Increased transaminases,40 mg Q8h (n = 31),0 n (%)
same,Drug-related TEAE: Insomnia,40 mg Q8h (n = 31),2 (6.5) n (%)
same,Drug-related TEAE: Myalgia,40 mg Q8h (n = 31),0 n (%)
same,Drug-related TEAE: Nausea,40 mg Q8h (n = 31),1 (3.2) n (%)
same,Drug-related TEAE: Peripheral oedema,40 mg Q8h (n = 31),1 (3.2) n (%)
same,Drug-related TEAE: Rash,40 mg Q8h (n = 31),1 (3.2) n (%)
same,Drug-related TEAE: Vomiting,40 mg Q8h (n = 31),1 (3.2) n (%)
same,Grade 3 TEAE: Anaemia,40 mg Q8h (n = 31),2 (6.5) n (%)
same,Grade 3 TEAE: Ascites,40 mg Q8h (n = 31),0 n (%)
same,Grade 3 TEAE: Asthenia,40 mg Q8h (n = 31),1 (3.2) n (%)
same,Grade 3 TEAE: Dyspnoea,40 mg Q8h (n = 31),0 n (%)
same,Grade 3 TEAE: Electrocardiogram QTc prolonged,40 mg Q8h (n = 31),1 (3.2) n (%)
same,Grade 3 TEAE: Fatigue,40 mg Q8h (n = 31),0 n (%)
same,Grade 3 TEAE: Metastases to the central nervous system,40 mg Q8h (n = 31),1 (3.2) n (%)
same,Patients with any TEAE,40 mg Q8h (n = 31),29 (93.5) Number (%)
same,Patients with any TEAE leading to treatment discontinuation,40 mg Q8h (n = 31),5 (16.1) Number (%)
same,Patients with any serious TEAE,40 mg Q8h (n = 31),12 (38.7) Number (%)
same,Patients with any study drug-related TEAE,40 mg Q8h (n = 31),13 (41.9) Number (%)
same,Patients with ≥ 1 treatment-emergent SAE,40 mg Q8h (n = 31),12 (38.7) n (%)
same,SAE class: Blood and lymphatic system disorders,40 mg Q8h (n = 31),2 (6.5) n (%)
same,SAE class: Cardiac disorders,40 mg Q8h (n = 31),1 (3.2) n (%)
same,SAE class: Gastrointestinal disorders,40 mg Q8h (n = 31),1 (3.2) n (%)
same,SAE class: General disorders and administration-site conditions,40 mg Q8h (n = 31),2 (6.5) n (%)
same,SAE class: Hepatobiliary disorders,40 mg Q8h (n = 31),0 n (%)
same,SAE class: Infections and infestations,40 mg Q8h (n = 31),4 (12.9) n (%)
same,SAE class: Metabolism and nutrition disorders,40 mg Q8h (n = 31),0 n (%)
same,SAE class: Musculoskeletal and connective tissue disorders,40 mg Q8h (n = 31),0 n (%)
same,"SAE class: Neoplasms benign, malignant and unspecified (including cysts and polyps)",40 mg Q8h (n = 31),1 (3.2) n (%)
same,SAE class: Nervous system disorders,40 mg Q8h (n = 31),2 (6.5) n (%)
same,"SAE class: Respiratory, thoracic and mediastinal disorders",40 mg Q8h (n = 31),1 (3.2) n (%)
same,SAE class: Vascular disorders,40 mg Q8h (n = 31),0 n (%)
same,SAE: Abdominal pain,40 mg Q8h (n = 31),1 (3.2) n (%)
same,SAE: Anaemia,40 mg Q8h (n = 31),2 (6.5) n (%)
same,SAE: Asthenia,40 mg Q8h (n = 31),0 n (%)
same,SAE: Basal cell carcinoma,40 mg Q8h (n = 31),0 n (%)
